Experimental data as given in US8946248B2, “HIV inhibiting 5-substituted pyrimidines” (priority 2004, dated 2015).
Blank lines part the entries; values can stand above or below the compound they belong to.

Tests used:
[1] = Antiviral activity, cellular assay, strain G; format: cell-based, HIV; conditions: Human immunodeficiency virus 1, read-out: pEC50 G (converted)
Experimental: (§1) Because of the increasing emergence of drug resistant HIV strains, the present compounds were tested for their potency against clinically isolated HIV strains harboring several mutations. These mutations are associated with resistance to reverse transcriptase inhibitors and result in viruses that show various degrees of phenotypic cross-resistance to the currently commercially available drugs such as for instance AZT and delavirdine.
(§2) The antiviral activity of the compound of the present invention has been evaluated in the presence of wild type HIV and HIV mutants bearing mutations at the reverse transcriptase gene. The activity of the compounds is evaluated using a cellular assay and the residual activity is expressed in pEC50 values. The columns IIIB and A-G in the table list the pEC50 values against various strains IIIB, A-G.

[2] = tested on: Strain IIIB, wild type HIV-LAI strain; test: Antiviral activity, cellular assay, strain IIIB; format: cell-based
Experimental: as §1, §2
Strain IIIB is wild type HIV-LAI strain

[3] = tested on: Strain A, mutation Y181C in HIV reverse transcriptase; test: Antiviral activity, cellular assay, strain A; format: cell-based; conditions: for pEC50 A: HIV strain with RT mutation Y181C, cellular assay
Experimental: as §1, §2
Strain A contains mutation Y181C in HIV reverse transcriptase, […]

[4] = tested on: Strain B, mutation K103N in HIV reverse transcriptase; test: Antiviral activity, cellular assay, strain B; format: cell-based; conditions: for pEC50 B: HIV strain with RT mutation K103N, cellular assay
Experimental: as §1, §2
Strain B contains mutation K103N in HIV reverse transcriptase, […]

[5] = tested on: Strain C, mutation L100I in HIV reverse transcriptase; test: Antiviral activity, cellular assay, strain C; format: cell-based; conditions: for pEC50 C: HIV strain with RT mutation L100I, cellular assay
Experimental: as §1, §2
Strain C contains mutation L100I in HIV reverse transcriptase, […]

[6] = tested on: Strain F, mutations K103N and Y181C in HIV reverse transcriptase; test: microbe, parasite or virus in culture; format: cell-based; conditions: for pEC50 F: HIV strain with RT mutations K103N and Y181C, cellular assay
[7] = tested on: Strain D, mutation Y188L in HIV reverse transcriptase; test: Antiviral activity, cellular assay, strain D; format: cell-based; conditions: for pEC50 D: HIV strain with RT mutation Y188L, cellular assay
Experimental: as §1, §2
Strain D contains mutation Y188L in HIV reverse transcriptase, […]

[8] = tested on: Strain E, mutations L100I and K103N in HIV reverse transcriptase; test: Antiviral activity, cellular assay, strain E; format: cell-based; conditions: for pEC50 E: HIV strain with RT mutations L100I and K103N, cellular assay
Experimental: as §1, §2
Strain E contains mutations L100I and K103N in HIV reverse transcriptase, […]

[9] = tested on: Strain G, mutations L100I, K103N, Y181C, V179I, Y181C, E138G, V179I, L2214F, V278V/1 and A327A/V in HIV reverse transcriptase; test: Antiviral activity, cellular assay, strain G; format: cell-based; conditions: HIV strain with RT mutations L100I, K103N, Y181C, V179I, E138G, L2214F, V278V/1 and A327A/V; cellular assay
Experimental: as §1, §2

melting point: > 250 °C
Compound: N#C/C=C/c1cc(F)c(Nc2nc(Nc3ccc(C#N)cc3)ncc2N)c(Cl)c1

melting point: > 250 °C
Compound: Cc1cc(/C=C/C#N)cc(C)c1Nc1nc(Nc2ccc(C#N)cc2)ncc1N

melting point: > 250 °C
Compound: Cc1cc(/C=C/C#N)cc(C)c1Nc1nc(Nc2ccc(C#N)cc2)ncc1C(=O)O

melting point: > 250 °C
Compound: Cc1cc(/C=C/C#N)cc(C)c1Nc1nc(Nc2ccc(C#N)cc2)ncc1[N+](=O)[O-]

melting point: 236 °C
Compound: N#C/C=C/c1cc(F)c(Nc2nc(Nc3ccc(C#N)cc3)ncc2Br)c(Cl)c1

melting point: > 250 °C
Compound: Cc1cc(/C=C/C#N)cc(C)c1Nc1nc(Nc2ccc(C#N)cc2)ncc1C(N)=O

The remaining lines, values behind:

Compound: Cc1cc(/C=C/C#N)cc(C)c1Nc1nc(Nc2ccc(C#N)cc2)ncc1NC=O [Compound 13]
EC50 [1]: 1000 nM
EC50 ([2]; Human immunodeficiency virus 1, IIIB): 0.398 nM
EC50 ([3]; Human immunodeficiency virus 1, read-out: pEC50 A (converted)): 2.51 nM
EC50 ([4]; Human immunodeficiency virus 1, read-out: pEC50 B (converted)): 0.631 nM
EC50 ([5]; Human immunodeficiency virus 1, read-out: pEC50 C (converted)): 0.631 nM
EC50 ([6]; Human immunodeficiency virus 1, read-out: pEC50 F (converted)): 3.98 nM
EC50 ([7]; Human immunodeficiency virus 1, read-out: pEC50 D (converted)): 3.16 nM
EC50 ([8]; Human immunodeficiency virus 1, read-out: pEC50 E (converted)): 6.31 nM

Compound: CCON=Cc1cnc(Nc2ccc(C#N)cc2)nc1Nc1c(C)cc(/C=C/C#N)cc1C [Compound 31]
pEC50 G [9]: 5.1
pEC50 IIIB [2]: 8.5
pEC50 A [3]: 8.2
pEC50 B [4]: 8.5
pEC50 C [5]: 8.5
pEC50 F [6]: 8.2
pEC50 D [7]: 8.2
pEC50 E [8]: 8.2

Compound: N#C/C=C/c1cc(F)c(Nc2nc(Nc3ccc(C#N)cc3)ncc2[N+](=O)[O-])c(Cl)c1
melting point: > 250 °C

Compound: CON=Cc1cnc(Nc2ccc(C#N)cc2)nc1Nc1c(C)cc(/C=C/C#N)cc1C [Compound 32]
pEC50 G [9]: 6
pEC50 IIIB [2]: 8.5
pEC50 A [3]: 8.5
pEC50 B [4]: 8.7
pEC50 C [5]: 9.3
pEC50 F [6]: 8.7
pEC50 D [7]: 8.6
pEC50 E [8]: 8.6

Compound: CC(=O)Nc1cnc(Nc2ccc(C#N)cc2)nc1Nc1c(F)cc(/C=C/C#N)cc1Cl [Compound 28]
pEC50 G [9]: 4.7
pEC50 IIIB [2]: 8.8
pEC50 A [3]: 7.9
pEC50 B [4]: 8.6
pEC50 C [5]: 8.3
pEC50 F [6]: 7.3
pEC50 D [7]: 7.3
pEC50 E [8]: 7

Compound: CC(=O)Nc1cnc(Nc2ccc(C#N)cc2)nc1Nc1c(C)cc(/C=C/C#N)cc1C
melting point: > 250 °C

Compound: Cc1cc(CCC#N)cc(C)c1Nc1nc(Nc2ccc(C#N)cc2)ncc1C(N)=O [Compound 26]
pEC50 G [9]: 6.4
pEC50 IIIB [2]: 9.7
pEC50 A [3]: 9
pEC50 B [4]: 9.7
pEC50 C [5]: 10
pEC50 F [6]: 9.2
pEC50 D [7]: 8.6
pEC50 E [8]: 9.2

Compound: Cc1cc(/C=C/C#N)cc(C)c1Nc1nc(Nc2ccc(C#N)cc2)ncc1Br
melting point: > 250 °C
